Data on three compounds can be found in patent publication US20240207414A1, “DISULFIDE-BASED PRODRUG COMPOUND” (Ludwig-Maximilians-Universitat Munchen, priority 2021, published 2024).

Assay type in all cases: biochemical
For assay [1], the target named is T1, thioredoxin reductase 1 (TrxR1) (Homo sapiens, UniProt Q16881).
T1 sequence (Q16881 1-499 isoform Q16881-5): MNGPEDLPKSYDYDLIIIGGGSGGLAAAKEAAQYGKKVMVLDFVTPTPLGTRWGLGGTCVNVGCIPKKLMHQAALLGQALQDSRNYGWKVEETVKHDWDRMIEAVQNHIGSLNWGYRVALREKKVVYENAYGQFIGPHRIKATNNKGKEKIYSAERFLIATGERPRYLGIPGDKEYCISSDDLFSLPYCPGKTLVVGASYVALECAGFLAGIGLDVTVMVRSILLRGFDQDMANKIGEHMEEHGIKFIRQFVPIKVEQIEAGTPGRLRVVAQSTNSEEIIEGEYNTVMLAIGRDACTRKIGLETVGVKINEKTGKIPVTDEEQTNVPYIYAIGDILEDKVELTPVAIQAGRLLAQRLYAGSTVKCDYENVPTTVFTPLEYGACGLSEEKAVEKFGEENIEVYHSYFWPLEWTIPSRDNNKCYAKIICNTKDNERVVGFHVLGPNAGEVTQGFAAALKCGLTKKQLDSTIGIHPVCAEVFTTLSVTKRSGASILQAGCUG
The experiment in a line: Enzymatic activation assay: NADPH/TrxR1 without Trx. The settings on record: NADPH/TrxR1, no Trx added, 37° C., 6 h. The text has this:
(§1) This assay (see FIG. 2) examined the resistance of disulfide-based reduction-triggered compounds to the major cellular enzymatic systems that maintain redox homeostasis and are capable of reducing disulfides, evaluated in a cell-free assay, to see if these compounds can be useful for selective enzyme-triggered release.
(§2) Assay conditions: A black 96-well plate with black bottom was charged with solutions of fluorophore-releasing reduction-triggered probes that are compounds of the invention (P1, P2) or that are not compounds of the invention and reveal the performance of prior art systems (X19) (50 μL; 40 μM in aq. TE buffer (pH 7.4) and 4 μL DMSO). Separately, master mixes (30 μL in aq. TE buffer (pH 7.4)) containing mixtures of the proteins human recombinant thioredoxin 1 (Trx1, 0.166-16.66 μM) or thioredoxin 2 (Trx2, 3.3 μM), or human recombinant glutaredoxin 1 (“Grx1”, 3.3 μM) or glutaredoxin 2 (Grx2, 3.3 μM) and/or oxidoreductases human recombinant thioredoxin reductase 1 (TrxR1, 0.07 μM), the thioredoxin reductase Secys498Cys mutant (TrxR1-U498C, 0.07 μM), thioredoxin reductase 2 (TrxR2, 0.07 μM) or human recombinant glutathione reductase (GR, 0.07 μM), and/or GSH (3.3 μM) were prepared. Note that TrxR1 (U498C) has decreased reducing power compared to TrxR1 due to the mutation of the key vicinal selenothiol/thiol into a vicinal dithiol, but it still reduces Trx1. […]
(§3) Data Representation: (F(t)-F^NADPH(t)) is the fluorescence intensity of the test solution at time t, from which is subtracted a background fluorescence level also at time t from a solution with NADPH (which itself is fluorescent, and is present in 10-fold higher concentration than the probe) and with the same protein mixture but without the probe. F^max(t) is the maximum possible fluorescence intensity value at time t, determined by incubation with TCEP (100 μM)) similarly as for the chemical reductant assay. (F(t)−F^NADPH(t))/F^max(t) thus gives the timecourse of fluorescence signal, as a fraction of the maximum possible fluorescence signal. […]

The target in assay [2] is thioredoxin reductase 2 (TrxR2) (Homo sapiens, UniProt Q9NNW7). The experiment in a line: Enzymatic activation assay: NADPH/TrxR2 without Trx. The conditions noted are these: NADPH/TrxR2, no Trx added, 37° C., 6 h.
Sequence of thioredoxin reductase 2 (TrxR2) (Q9NNW7 37-524): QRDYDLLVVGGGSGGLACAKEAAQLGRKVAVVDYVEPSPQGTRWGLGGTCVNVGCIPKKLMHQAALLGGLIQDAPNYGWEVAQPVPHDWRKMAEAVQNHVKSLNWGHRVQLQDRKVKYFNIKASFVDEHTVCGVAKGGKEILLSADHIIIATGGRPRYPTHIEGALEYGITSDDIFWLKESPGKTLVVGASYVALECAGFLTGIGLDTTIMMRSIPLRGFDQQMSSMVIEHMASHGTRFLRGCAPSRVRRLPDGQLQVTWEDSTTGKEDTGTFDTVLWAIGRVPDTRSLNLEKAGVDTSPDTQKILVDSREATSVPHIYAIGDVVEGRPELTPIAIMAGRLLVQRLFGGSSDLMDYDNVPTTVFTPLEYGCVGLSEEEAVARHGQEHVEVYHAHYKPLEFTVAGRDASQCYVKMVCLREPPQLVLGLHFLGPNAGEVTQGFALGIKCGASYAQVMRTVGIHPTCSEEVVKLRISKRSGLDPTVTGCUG
Description: as §1
Assay conditions: A black 96-well plate with black bottom was charged with solutions of fluorophore-releasing reduction-triggered probes that are compounds of the invention (P1, P2) or that are not compounds of the invention and reveal the performance of prior art systems (X19) (50 μL; 40 μM in aq. TE buffer (pH 7.4) and 4 μL DMSO). […]
as §3

The target in another assay is T2, NADPH/TrxR1/Trx1 (Homo sapiens, UniProt P10599).
T2 sequence (P10599 1-105): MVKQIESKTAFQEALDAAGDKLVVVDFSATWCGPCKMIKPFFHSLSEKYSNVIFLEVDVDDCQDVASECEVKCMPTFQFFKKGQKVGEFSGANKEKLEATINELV
The experiment in a line: Enzymatic activation assay: NADPH/TrxR1/Trx1 system. The conditions noted are these: NADPH/TrxR1 plus Trx1, 37° C., 6 h.
Description: as §1, §2, §3

The next assay has as its target T3, TrxR1(U498C) (Homo sapiens, UniProt Q16881).
T3 sequence (Q16881 with tags, fused parts or gaps isoform Q16881-5): T1 sequence (Q16881 1-499 isoform Q16881-5) with U498C
The experiment in a line: Enzymatic activation assay: TrxR1 Secys498Cys mutant. The settings on record: NADPH; for cargo release / processing by TrxR1(U498C)/Trx1: TrxR1(U498C) with Trx1.
Description: as §1, §2, §3

A further assay addresses T4, GR/GSH (Homo sapiens, UniProt P00390).
T4 sequence (P00390 44-522): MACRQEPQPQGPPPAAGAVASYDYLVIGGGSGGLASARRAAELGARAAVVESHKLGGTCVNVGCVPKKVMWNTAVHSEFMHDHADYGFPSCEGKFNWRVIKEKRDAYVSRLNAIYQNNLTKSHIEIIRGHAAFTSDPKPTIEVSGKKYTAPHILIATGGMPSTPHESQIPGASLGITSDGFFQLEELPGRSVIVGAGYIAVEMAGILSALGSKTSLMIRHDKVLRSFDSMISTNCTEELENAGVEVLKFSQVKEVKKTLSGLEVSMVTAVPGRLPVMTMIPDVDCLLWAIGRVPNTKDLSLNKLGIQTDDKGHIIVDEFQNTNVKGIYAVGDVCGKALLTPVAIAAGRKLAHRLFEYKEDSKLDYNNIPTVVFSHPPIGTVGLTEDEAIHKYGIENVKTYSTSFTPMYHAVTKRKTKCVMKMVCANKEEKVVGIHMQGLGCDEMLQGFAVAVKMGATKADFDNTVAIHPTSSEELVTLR
Put plainly: Enzymatic activation assay: GR/GSH. The conditions noted are these: NADPH/GR/GSH.
Description: as §1, §2, §3

Positions count from the first letter of the chain named.

In the case of `O=C(Oc1ccc(Cl)cc1-c1nc2ccc(Cl)cc2c(=O)[nH]1)N1CCC[C@@H]2CSSC[C@@H]21` (racemic) [Compound P2, 4-chloro-2-(6-chloro-4-oxo-3,4-dihydroquinazolin-2-yl)phenyl-(cis)-hexahydro-[1,2]dithiino[4,5-b]pyridine-1(2H)-carboxylate], in assay [1], the “cargo release / processing by TrxR1” value is listed as “not processed”. For the same compound, the “cargo release / processing by TrxR2” value in assay [2] is “not processed”. The “cargo release / processing by TrxR plus Trx1” value at NADPH/TrxR1/Trx1 was “processed when additional high levels of Trx1 and Trx2 are added”. For the same compound, the “cargo release / processing by TrxR1(U498C)/Trx1” value on TrxR1(U498C) was “not processed”. Further, the “cargo release / processing by GR/GSH mixture” value at GR/GSH is recorded as “resist”.
Regarding “4-chloro-2-(6-chloro-4-oxo-3,4-dihydroquinazolin-2-yl)phenyl methyl(2-((2-(methyl amino)ethyl)disulfaneyl)ethyl)carbamate [Compound X19, reference compound]”, the “cargo release / processing by TrxR1” value in assay [1] is on record as “rapidly degraded”. For the same compound, at NADPH/TrxR1/Trx1, the “cargo release / processing by TrxR plus Trx1” value is “enhanced reaction kinetics”. The “cargo release / degradation by TrxR1(U498C)” value on TrxR1(U498C) (TrxR1(U498C)) is listed as “rapidly degraded”. Further, on GR/GSH, the “cargo release / processing by GR/GSH mixture” value is on record as “rapidly degraded”.
Take `O=C(Oc1ccc(Cl)cc1-c1nc2ccc(Cl)cc2c(=O)[nH]1)N1CCC[C@@H]2CSSC[C@H]21` (racemic) [Compound P1, 4-chloro-2-(6-chloro-4-oxo-3,4-dihydroquinazolin-2-yl)phenyl-(trans)-hexahydro-[1,2]dithiino[4,5-b]pyridine-1(2H)-carboxylate]: the “cargo release / processing by TrxR1” value in assay [1] was “not processed”. Besides, in assay [2], the “cargo release / processing by TrxR2” value is given as “not processed”. In addition, on NADPH/TrxR1/Trx1, the “cargo release / processing by TrxR plus Trx1” value was “processed when additional high levels of Trx1 and Trx2 are added”. Also, the “cargo release / processing by TrxR1(U498C)/Trx1” value on TrxR1(U498C) is “not processed”. Moreover, the “cargo release / processing by GR/GSH mixture” value at GR/GSH is “resist”.
